Data as given in PubChem BioAssay (NCI).
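96-well plates; 48 h exposure; 5 concentrations. Endpoints by linear interpolation between flanking doses. Not reached: highest tested concentration assigned. The concentration for 50% growth inhibition is given as GI50. TGI: concentration producing complete growth inhibition.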

Columns and labels:
Assay in all cases: NCI anticancer screen, dose series, 48 h
OVCAR-5 ovarian = tested on: OVCAR-5 ovarian
HCT-15 colon = tested on: HCT-15 colon
SF-295 CNS = tested on: SF-295 CNS
K-562 leukemia = tested on: K-562 leukemia
HL-60(TB) leukemia = tested on: HL-60(TB) leukemia
SW-620 colon = tested on: SW-620 colon
HOP-62 NSCLC = tested on: HOP-62 NSCLC
CCRF-CEM leukemia = tested on: CCRF-CEM leukemia
OVCAR-8 ovarian = tested on: OVCAR-8 ovarian
HOP-92 NSCLC = tested on: HOP-92 NSCLC

| Structure (SMILES) | TGI (OVCAR-5 ovarian) [µM] | TGI (HCT-15 colon) [µM] | TGI (SF-295 CNS) [µM] | TGI (K-562 leukemia) [µM] | TGI (HL-60(TB) leukemia) [µM] | TGI (SW-620 colon) [µM] | TGI (HOP-62 NSCLC) [µM] | TGI (CCRF-CEM leukemia) [µM] | TGI (OVCAR-8 ovarian) [µM] | GI50 (OVCAR-5 ovarian) [µM] | GI50 (HCT-15 colon) [µM] | GI50 (SF-295 CNS) [µM] | GI50 (K-562 leukemia) [µM] | GI50 (HL-60(TB) leukemia) [µM] | GI50 (SW-620 colon) [µM] | GI50 (HOP-62 NSCLC) [µM] | GI50 (CCRF-CEM leukemia) [µM] | GI50 (OVCAR-8 ovarian) [µM] | GI50 (HOP-92 NSCLC) [µM] | TGI (HOP-92 NSCLC) [µM] |
| --- | --- | --- | --- | --- | --- | --- | --- | --- | --- | --- | --- | --- | --- | --- | --- | --- | --- | --- | --- | --- |
| Cc1ccc(S(=O)(=O)c2ccccc2[N+](=O)[O-])cc1 | > 100 | > 100 | > 100 | > 100 | > 100 | > 100 | > 100 | > 100 | > 100 |  |  |  |  |  |  |  |  |  |  |  |
| Cn1cc(C2=C(c3cn(C)c4ccc(Cl)cc34)C(=O)NC2=O)c2ccccc21 | > 21.9 | > 25 | 8.02 | > 25 | 8.82 | > 25 | 17.8 | 19.2 | > 21.6 | 9.3 | 1.35 | 1.6 | 1.35 | 1.4 | 1.38 | 3.79 | 1.18 | 5.16 |  |  |
| CCCCCCCCNCCC[C@@H](C)[C@H]1CC[C@H]2[C@@H]3[C@H](OCCCN)C[C@H]4C[C@H](OCCCN)CC[C@]4(C)[C@H]3C[C@H](OCCCN)[C@]12C | 12.5 | 16.9 | 4.43 | 11.5 |  | 3.85 | 7.16 | 4.27 | 4.07 | 2.26 | 3.39 | 0.993 | 2.84 |  | 1.72 | 1.53 | 1.89 | 1.82 | 0.429 | 8.46 |
| COC(=O)CC(NC(=O)OCc1ccccc1)C(C(=O)OCc1ccccc1)C(C)(OC)OC (configuration not stated) |  | > 100 | > 100 | > 100 | 90.9 | > 100 | > 100 | 65.4 | > 100 |  |  |  |  |  |  |  |  |  |  |  |
| O=C(Nc1ccc(-c2nc(-c3cccc(OCCN4CCOCC4)c3)c(-c3ccnc(Br)c3)[nH]2)cc1)c1ccccc1 | > 100 | 3.2 |  |  |  | 6.38 |  | > 100 | > 100 | 3.73 | 0.72 |  |  |  | 2.05 |  | 2.18 | 3.96 | 2.01 | 8.16 |
| COc1ccc(CCn2c(=O)c3ccccc3n(C)c2=O)cc1 | > 100 |  | > 100 | > 100 |  | > 100 | > 100 | > 100 | > 100 |  |  |  |  |  |  |  |  |  |  |  |
| O=C([O][Sn]([O]C(=O)c1ccccn1)([c]1ccccc1)[c]1ccccc1)c1ccccn1 | 30.1 | 20.4 | 31.9 | 6.37 |  | 2.34 | 31.5 | 2.95 | 24 | 16.5 | 6.95 | 16.1 | 0.405 |  | 1.13 | 16.5 | 0.565 | 11.3 |  |  |
| Cc1nc(Nc2cccnc2)sc1C(=O)/C=C/c1ccc(Cl)cc1 | 31.2 | 4.03 | 19.1 | > 100 |  | 4.75 | 7.6 | > 100 | > 100 | 2.87 | 1.59 | 2.79 | 2.62 |  | 2.08 | 2.56 | 3.31 | 3.84 | 3.23 | 15.2 |
| CC(C)(C)C(=CS(=O)/N=C/c1ccccc1)C(C)(C)C (configuration not stated) | > 100 | 80.7 |  | 86.4 |  | > 100 | > 100 | 49.8 | > 100 |  |  |  |  |  |  |  |  |  |  | 51.2 |
| C=CCO/N=C(\OC(=O)c1ccc([N+](=O)[O-])cc1)c1ccccc1 | > 100 | > 100 | > 100 | > 100 |  | > 100 | > 100 | > 100 | > 100 |  |  |  |  |  |  |  |  |  |  | > 100 |
| COc1cc(NC(=O)CCSc2nc3ccc(C)cc3c(=O)n2Cc2ccccc2)cc(OC)c1OC | > 100 | > 100 |  | > 100 |  | > 100 | 9.47 | > 100 | > 100 | > 100 | > 100 |  | > 100 |  | > 100 | 2.94 | > 100 | 5.01 | 1.9 | 7.99 |
| Cc1ccc(N=Nc2c(O)ccc3ccccc23)cc1 | > 100 | > 100 | > 100 |  |  | > 100 | > 100 | 75.8 | > 100 |  |  |  |  |  |  |  |  |  |  | > 100 |
| CC(=O)[O-].[Mn+3].[O-]c1ccccc1C=NCCNCCN=Cc1ccccc1[O-] |  | > 100 | > 100 | > 100 | > 100 |  |  | > 100 | > 100 |  | > 100 | > 100 | > 100 | > 100 |  |  | 86.1 | > 100 |  |  |
| O=C(c1ccccc1)c1c(NCC(O)CN2CCOCC2)n(Cc2ccccc2)c(=O)n(Cc2ccccc2)c1=O (configuration not stated) | > 78.7 | > 100 | > 100 | > 100 |  | > 100 | > 100 | > 100 | > 100 | 5.53 | 34.4 | 36.2 | 42.2 |  | 52.9 | 96.9 | 41.3 | 48.9 | 17.9 | 70.8 |
